In ChEMBL document CHEMBL1137259, “Tubeimoside V (1), a new cyclic bisdesmoside from tubers of Bolbostemma paniculatum, functions by inducing apoptosis in human glioblastoma U87MG cells” (Bioorg Med Chem Lett, 2006):
The source made the active and inactive calls. No cut-off for these calls is given here.

What was measured:
[1] = tested on: U-87 MG; test: Induction of apoptosis measured as down regulation of Bcl2 expression in human U87MG cell line by Western blot analysis at 7.0 uM after 24 hrs; format: functional, cell-based; settings: U-87MG ATCC
[2] = tested on: U-87 MG; test: Cell cycle arrest in U87MG cells by accumulation at SubG1 phase at 3.6 uM after 24 hrs; format: functional, Homo sapiens, U-87MG ATCC
[3] = tested on: U-87 MG; test: Cell cycle arrest in U87MG cells by accumulation at S phase at 3.6 uM after 24 hrs; format: functional, Homo sapiens, U-87MG ATCC
[4] = tested on: U-87 MG; test: Cell cycle arrest in U87MG cells by accumulation at S phase at 2.6 uM after 12 hrs; format: functional, Homo sapiens, U-87MG ATCC
[5] = tested on: U-87 MG; test: Cell cycle arrest in U87MG cells by accumulation at G2/M phase at 3.6 uM after 24 hrs; format: functional, Homo sapiens, U-87MG ATCC
[6] = tested on: U-87 MG; test: Cell cycle arrest in U87MG cells by accumulation at S phase at 3.6 uM after 12 hrs; format: functional, Homo sapiens, U-87MG ATCC
[7] = tested on: U-87 MG; test: Cell cycle arrest in U87MG cells by accumulation at SubG1 phase at 7.0 uM after 12 hrs; format: functional, Homo sapiens, U-87MG ATCC
[8] = tested on: U-87 MG; test: Cell cycle arrest in U87MG cells by accumulation at G2/M phase at 3.6 uM after 12 hrs; format: functional, Homo sapiens, U-87MG ATCC
[9] = tested on: U-87 MG; test: Induction of apoptosis measured as up regulation of Bax expression in human U87MG cell line by Western blot analysis at 7.0 uM after 6 hrs; format: functional, cell-based; settings: U-87MG ATCC
[10] = tested on: U-87 MG; test: Induction of apoptosis measured as up regulation of Bax expression in human U87MG cell line by Western blot analysis at 7.0 uM after 24 hrs; format: functional, cell-based; settings: U-87MG ATCC
[11] = tested on: U-87 MG; test: Cell cycle arrest in U87MG cells by accumulation at SubG1 phase at 2.6 uM after 12 hrs; format: functional, Homo sapiens, U-87MG ATCC
[12] = tested on: U-87 MG; test: Cell cycle arrest in U87MG cells by accumulation at SubG1 phase at 2.6 uM after 24 hrs; format: functional, Homo sapiens, U-87MG ATCC
[13] = tested on: U-87 MG; test: Cell cycle arrest in U87MG cells by accumulation at G0/G1 phase at 3.6 uM after 24 hrs; format: functional, Homo sapiens, U-87MG ATCC
[14] = tested on: U-87 MG; test: Cell cycle arrest in U87MG cells by accumulation at G2/M phase at 2.6 uM after 12 hrs; format: functional, Homo sapiens, U-87MG ATCC
[15] = tested on: U-87 MG; test: Cell cycle arrest in U87MG cells by accumulation at SubG1 phase at 7.0 uM after 24 hrs; format: functional, Homo sapiens, U-87MG ATCC
[16] = tested on: U-87 MG; test: Cell cycle arrest in U87MG cells by accumulation at G2/M phase at 7.0 uM after 24 hrs; format: functional, Homo sapiens, U-87MG ATCC
[17] = tested on: U-87 MG; test: Cell cycle arrest in U87MG cells by accumulation at S phase at 7.0 uM after 12 hrs; format: functional, Homo sapiens, U-87MG ATCC
[18] = tested on: U-87 MG; test: Cell cycle arrest in U87MG cells by accumulation at G0/G1 phase at 2.6 uM after 24 hrs; format: functional, Homo sapiens, U-87MG ATCC
[19] = tested on: U-87 MG; test: Cell cycle arrest in U87MG cells by accumulation at SubG1 phase at 3.6 uM after 12 hrs; format: functional, Homo sapiens, U-87MG ATCC
[20] = tested on: U-87 MG; test: Cell cycle arrest in U87MG cells by accumulation at G2/M phase at 2.6 uM after 24 hrs; format: functional, Homo sapiens, U-87MG ATCC
[21] = tested on: U-87 MG; test: Antiproliferative activity against human U87MG cell line by MTT assay; format: functional, cell-based, U-87MG ATCC
[22] = tested on: U-87 MG; test: Cell cycle arrest in U87MG cells by accumulation at G0/G1 phase at 7.0 uM after 12 hrs; format: functional, Homo sapiens, U-87MG ATCC
[23] = tested on: U-87 MG; test: Cell cycle arrest in U87MG cells by accumulation at S phase at 2.6 uM after 24 hrs; format: functional, Homo sapiens, U-87MG ATCC
[24] = tested on: U-87 MG; test: Induction of apoptosis assessed as phosphatidylserine externalization in human U87MG cell line at 7.0 uM after 24 hrs by annexinV/PI assay; format: functional, cell-based; settings: U-87MG ATCC
[25] = tested on: U-87 MG; test: Cell cycle arrest in U87MG cells by accumulation at G0/G1 phase at 3.6 uM after 12 hrs; format: functional, Homo sapiens, U-87MG ATCC
[26] = tested on: U-87 MG; test: Induction of apoptosis measured as down regulation of Bcl2 expression in human U87MG cell line by Western blot analysis at 7.0 uM after 6 hrs; format: functional, cell-based; settings: U-87MG ATCC
[27] = tested on: U-87 MG; test: Cell cycle arrest in U87MG cells by accumulation at S phase at 7.0 uM after 24 hrs; format: functional, Homo sapiens, U-87MG ATCC
[28] = tested on: U-87 MG; test: Induction of apoptosis measured as chromatin condensation in human U87MG cell line at 7.0 uM after 24 hrs by hoechst 33342 staining; format: functional, cell-based; settings: U-87MG ATCC
[29] = tested on: U-87 MG; test: Cell cycle arrest in U87MG cells by accumulation at G2/M phase at 7.0 uM after 12 hrs; format: functional, Homo sapiens, U-87MG ATCC
[30] = tested on: U-87 MG; test: Cell cycle arrest in U87MG cells by accumulation at G0/G1 phase at 2.6 uM after 12 hrs; format: functional, Homo sapiens, U-87MG ATCC
[31] = tested on: U-87 MG; test: Cell cycle arrest in U87MG cells by accumulation at G0/G1 phase at 7.0 uM after 24 hrs; format: functional, Homo sapiens, U-87MG ATCC

C[C@@H]1O[C@H]2O[C@@H]3[C@H](OC[C@@H](O)[C@H]3O)OC(=O)[C@]34CCC(C)(C)CC3C3=CCC5[C@@]6(C)C[C@H](O)[C@H](O[C@@H]7O[C@H](CO)[C@@H](O)[C@H](O)[C@H]7O[C@H]7O[C@@H](COC(=O)C[C@](C)(O)CC(=O)O[C@@H]1[C@@H](O[C@@H]1OC[C@@H](O)[C@H](O)[C@H]1O)[C@H]2O)[C@H](O)[C@@H](O)[C@@H]7O)[C@@](C)(CO)C6CC[C@@]5(C)[C@]3(C)CC4 (stereo partly drawn) [TUBEIMOSIDE V]
Activity [1]: Active
Activity [2]: 20.8%
Activity [3]: 34.2%
Activity [4]: 27.6%
Activity [5]: 12.3%
Activity [6]: 31.4%
Activity [7]: 18.3%
Activity [8]: 17.6%
Activity [9]: Active
Activity [10]: Active
Activity [11]: 4.1%
Activity [12]: 9.1%
Activity [13]: 53.5%
Activity [14]: 22.3%
Activity [15]: 42.3%
Activity [16]: 9.6%
Activity [17]: 32.6%
Activity [18]: 51.3%
Activity [19]: 8.9%
Activity [20]: 17.7%
IC25 [21]: 2.6 µM
IC50 [21]: 3.6 µM
IC75 [21]: 7 µM
Activity [22]: 53.3%
Activity [23]: 31%
Activity [24]: Active
Activity [25]: 51%
Activity [26]: Active
Activity [27]: 37.1%
Activity [28]: Active
Activity [29]: 14.1%
Activity [30]: 50.1%
Activity [31]: 53.3%
